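Exposure lasted 48 hours, with cells grown in 96-well plates and compounds tested at five concentrations. GI50 = concentration required for 50% inhibition of growth.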 Active and inactive are the calls of the source. Rule as the data show it: active = GI50 up to about 1.1 µM and inactive = higher.
Columns and labels:
Assay in all cases: NCI anticancer screen, dose series, 48 h
MDA-MB-231 = test system: MDA-MB-231
A498 = test system: A498
786-0 = test system: 786-0
MOLT-4 = test system: MOLT-4
SF-268 = test system: SF-268
HOP-62 = test system: HOP-62
OVCAR-8 = test system: OVCAR-8
SK-MEL-2 = test system: SK-MEL-2
M14 = test system: M14
NCI-H23 = test system: NCI-H23
HCT-15 = test system: HCT-15
SN12C = test system: SN12C
ACHN = test system: ACHN
NCI-H460 = test system: NCI-H460
DU-145 = test system: DU-145
SK-OV-3 = test system: SK-OV-3
SNB-75 = test system: SNB-75
PC-3 = test system: PC-3
RXF 393 = test system: RXF 393
CCRF-CEM = test system: CCRF-CEM

| Structure (SMILES) | GI50 (MDA-MB-231) | GI50 (A498) | GI50 (786-0) | GI50 (MOLT-4) | GI50 (SF-268) | GI50 (HOP-62) | GI50 (OVCAR-8) | GI50 (SK-MEL-2) | GI50 (M14) | GI50 (NCI-H23) | GI50 (HCT-15) [µM] | GI50 (SN12C) | GI50 (ACHN) | GI50 (NCI-H460) | GI50 (DU-145) | GI50 (SK-OV-3) | GI50 (SNB-75) | GI50 (PC-3) | GI50 (RXF 393) | GI50 (CCRF-CEM) |
| --- | --- | --- | --- | --- | --- | --- | --- | --- | --- | --- | --- | --- | --- | --- | --- | --- | --- | --- | --- | --- |
| C[C@@H]1C(=O)C[C@H]2C(C)(C)CCC[C@]2(C)[C@@]1(O)CCc1ccoc1 | > 100 µM (inactive) | > 100 µM (inactive) | > 100 µM (inactive) | 80.4 µM (inactive) | 96.4 µM (inactive) | > 100 µM (inactive) | > 100 µM (inactive) | > 100 µM (inactive) | > 100 µM (inactive) | > 100 µM (inactive) | > 100 | > 100 µM (inactive) | > 100 µM (inactive) | > 100 µM (inactive) | > 100 µM (inactive) | > 100 µM (inactive) | > 100 µM (inactive) | > 100 µM (inactive) | > 100 µM (inactive) | > 100 µM (inactive) |
| CC(C)(C)c1cc(C2=NN(c3ccccc3)C(c3ccccc3)C2)cc(C(C)(C)C)c1O (stereo not given) | > 100 µM (inactive) | > 100 µM (inactive) | > 100 µM (inactive) | > 100 µM (inactive) | > 100 µM (inactive) | > 100 µM (inactive) | > 100 µM (inactive) | > 100 µM (inactive) | > 100 µM (inactive) | > 100 µM (inactive) | > 100 | > 100 µM (inactive) | > 100 µM (inactive) | > 100 µM (inactive) | > 100 µM (inactive) | > 100 µM (inactive) | > 100 µM (inactive) | > 100 µM (inactive) | > 100 µM (inactive) | 19.1 µM (inactive) |
| CCCC(=O)[O-].[Na+] [SODIUM BUTYRATE] | 5710 µM (inactive) | 4400 µM (inactive) | 10600 µM (inactive) | 3730 µM (inactive) | 8280 µM (inactive) | 7210 µM (inactive) | 1990 µM (inactive) | 4720 µM (inactive) | 5460 µM (inactive) | 3970 µM (inactive) | 10600 | 5310 µM (inactive) | 4470 µM (inactive) | 2390 µM (inactive) | 2370 µM (inactive) | 3030 µM (inactive) | 9680 µM (inactive) | 7100 µM (inactive) | 8390 µM (inactive) | 2050 µM (inactive) |

Reference: ChEMBL document CHEMBL1201862, “PubChem BioAssay data set” (2004)
